Results published in article PMC9302676 (Chemsuschem, 2022).

Key:
P450 BM3 (CYP102A1) [1] = target: P450 BM3 (CYP102A1) (Priestia megaterium, UniProt P14779); test: biochemical
P450 BM3 (CYP102A1) [2] = target: P450 BM3 (CYP102A1) (Priestia megaterium, UniProt P14779, N320L/T412V/T437A); test: biochemical
Chain of P450 BM3 (CYP102A1) (Priestia megaterium, UniProt P14779, N320L/T412V/T437A) (P14779 whole entry N320L/T412V/T437A): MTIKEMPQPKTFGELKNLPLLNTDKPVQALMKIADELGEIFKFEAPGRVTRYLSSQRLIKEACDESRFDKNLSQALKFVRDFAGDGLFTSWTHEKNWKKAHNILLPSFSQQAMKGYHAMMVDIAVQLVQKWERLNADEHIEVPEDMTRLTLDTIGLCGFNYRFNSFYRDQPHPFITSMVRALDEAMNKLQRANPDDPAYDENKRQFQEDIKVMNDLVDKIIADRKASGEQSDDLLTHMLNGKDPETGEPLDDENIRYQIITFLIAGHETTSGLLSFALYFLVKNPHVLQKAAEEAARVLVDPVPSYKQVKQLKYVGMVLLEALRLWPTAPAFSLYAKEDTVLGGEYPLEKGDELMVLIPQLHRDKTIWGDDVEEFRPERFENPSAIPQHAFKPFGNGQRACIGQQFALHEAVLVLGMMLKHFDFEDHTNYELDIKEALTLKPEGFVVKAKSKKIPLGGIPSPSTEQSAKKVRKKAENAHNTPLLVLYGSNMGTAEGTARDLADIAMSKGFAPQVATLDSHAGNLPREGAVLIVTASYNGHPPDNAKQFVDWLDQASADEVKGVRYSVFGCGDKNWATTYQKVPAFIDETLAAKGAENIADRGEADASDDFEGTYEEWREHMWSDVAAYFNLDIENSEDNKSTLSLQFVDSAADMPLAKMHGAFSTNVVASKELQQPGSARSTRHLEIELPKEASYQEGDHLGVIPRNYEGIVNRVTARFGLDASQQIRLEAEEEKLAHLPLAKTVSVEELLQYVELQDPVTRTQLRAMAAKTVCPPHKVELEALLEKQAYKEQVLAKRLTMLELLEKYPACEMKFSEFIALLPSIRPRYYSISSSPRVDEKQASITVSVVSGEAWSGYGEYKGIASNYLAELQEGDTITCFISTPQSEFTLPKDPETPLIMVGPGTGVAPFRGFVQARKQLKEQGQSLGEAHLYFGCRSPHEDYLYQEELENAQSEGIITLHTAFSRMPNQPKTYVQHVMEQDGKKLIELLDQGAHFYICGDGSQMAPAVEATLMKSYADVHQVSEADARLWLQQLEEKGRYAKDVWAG

Chain of P450 BM3 (CYP102A1) (Priestia megaterium, UniProt P14779) (P14779 whole entry): as the sequence (P14779 whole entry N320L/T412V/T437A) above, with L320N, V412T, A437T counted along it

Kd (P450 BM3 (CYP102A1) [1]): 6.85 ± 0.079 mM
Kd (P450 BM3 (CYP102A1) [2]): 6.263 ± 0.047 mM
Compound: CC1=CC(=O)CC(C)(C)C1 [α-isophorone]
